Reference: PMC2912279, “Calycosin Promotes Angiogenesis Involving Estrogen Receptor and Mitogen-Activated Protein Kinase (MAPK) Signaling Pathway in Zebrafish and HUVEC” (PLoS ONE, 2010)
pEC50, pIC50: −log10 of the molar value.

Tests used:
ERα [1] = molecular target: T1, ERα (Homo sapiens, UniProt P03372); assay: ER fluorescence polarization competitive binding assay (Fluormone ES2 displacement), ERα
T1 construct: purchased Invitrogen
T1 sequence (P03372 1-595): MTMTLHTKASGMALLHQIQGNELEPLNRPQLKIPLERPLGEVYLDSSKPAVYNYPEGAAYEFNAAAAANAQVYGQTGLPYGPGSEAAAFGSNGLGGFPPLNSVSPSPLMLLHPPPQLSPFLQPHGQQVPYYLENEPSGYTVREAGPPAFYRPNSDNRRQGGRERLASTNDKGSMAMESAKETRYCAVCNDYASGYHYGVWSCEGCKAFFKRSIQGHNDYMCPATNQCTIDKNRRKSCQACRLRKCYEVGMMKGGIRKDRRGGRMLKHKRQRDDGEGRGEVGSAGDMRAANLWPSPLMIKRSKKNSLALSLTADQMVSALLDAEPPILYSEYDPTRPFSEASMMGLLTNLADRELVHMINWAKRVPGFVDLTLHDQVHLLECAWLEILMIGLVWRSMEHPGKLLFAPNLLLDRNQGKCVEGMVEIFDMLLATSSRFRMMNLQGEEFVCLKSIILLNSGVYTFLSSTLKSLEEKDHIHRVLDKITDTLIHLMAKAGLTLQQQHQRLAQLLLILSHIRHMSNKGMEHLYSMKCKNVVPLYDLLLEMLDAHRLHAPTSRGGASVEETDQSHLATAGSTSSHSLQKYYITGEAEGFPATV
Protocol: (§1) The binding affinity of calycosin to ER-α and β was evaluated by the commercially available competitor assay (Invitrogen, Carlasbad, CA) according to the manufacturer's instructions. In brief, ER was added to fluorescently tagged ER ligand (Fluormone™ ES2) to form ER/Fluormone™ ES2 complexes with a high fluorescent polarization value. Displacement of fluorescently tagged ligands by unlabeled ligands decreased fluorescent polarization, resulting in a low value. In this system, changes in intensity of polarization reflect displacement of fluorescently tagged ligands. […] Plates were incubated at room temperature for 2 h and fluorescent polarization values measured using a Multilabel Counter (Perkin Elmer, Singapore).

HUVEC = HUVEC viability/proliferation by XTT assay; assay type: cell-based, Human; settings: P<0.05
ERK1/2 = assay: Western blotting of phospho-ERK1/2 in HUVEC; assay type: cell-based, Human
ERβ [2] = molecular target: T2, ERβ (Homo sapiens, UniProt Q92731); settings: percentage of maximum activation induced by 17-β-estradiol (10 µM)
Target sequence in this assay (Q92731 264-498 limits assumed): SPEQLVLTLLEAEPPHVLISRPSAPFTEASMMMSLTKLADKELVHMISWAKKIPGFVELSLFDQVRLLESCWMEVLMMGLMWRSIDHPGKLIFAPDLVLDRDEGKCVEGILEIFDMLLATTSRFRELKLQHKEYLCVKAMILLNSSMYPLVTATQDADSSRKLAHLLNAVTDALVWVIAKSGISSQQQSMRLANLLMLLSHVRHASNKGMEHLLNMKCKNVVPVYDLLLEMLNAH

[3] = test system: VEGFA, VEGFR1, Flk1A, Flk1B mRNA; assay: mRNA expression in calycosin treated zebrafish by real-time PCR; assay type: in vivo; settings: 100 µM, 6 h
Protocol: Zebrafish embryos at 72 hpf were treated with calycosin for 6 h. Total RNA was extracted from 30 zebrafish embryos of each treatment group using the RNeasy Mini Kit (Qiagen, USA) in accordance with the manufacturer's instructions. RNA was reverse transcribed to single-strand cDNA using SuperScript™ III First-Strand Synthesis System for RT–PCR (Invitrogen™, USA), followed by real-time PCR using the TaqMan® Universal PCR Master Mix and 250 nM custom TaqMan primers for zebrafish Flk1A, Flk1B, VEGFR1, VEGFA2 (Applied Biosystems, USA) in the ABI 7500 Real-Time PCR System (Applied Biosystems). The expression of Flk1A, VEGFA2 mRNA was normalized to the amount of bactin1, using the relative quantification method described by the manufacturer.
The zebrafish bactin1 primers were 5′-[…]-3′ (F) and 5′-[…]-3′(R) (Applied Biosystems, USA).
The zebrafish Flk1A (kdrl) primers were 5′- […]-3′ (F) and 5′- […]-3′(R) (Applied Biosystems, USA).
The zebrafish Flk1B (kdr) primers were 5′- […]-3′ (F) and 5′-[…]-3′(R) (Applied Biosystems, USA).
The zebrafish FLT1 primers were 5′-[…]-3′ (F) and 5′-[…]-3′(R) (Applied Biosystems, USA).
The zebrafish VEGFA2 primers were 5′-[…]-3′ (F) and 5′-[…]-3′ (R) (Applied Biosystems, USA).

ERβ [4] = molecular target: T2, ERβ
Target sequence in this assay (Q92731 264-498 limits assumed): as above

ERα [5] = molecular target: T3, ERα (Homo sapiens, UniProt P03372); assay: GeneBLAzer β-lactamase reporter-gene assay, agonist activity, ERα-UAS-bla GripTite cells
T3 sequence (P03372 311-547 limits assumed): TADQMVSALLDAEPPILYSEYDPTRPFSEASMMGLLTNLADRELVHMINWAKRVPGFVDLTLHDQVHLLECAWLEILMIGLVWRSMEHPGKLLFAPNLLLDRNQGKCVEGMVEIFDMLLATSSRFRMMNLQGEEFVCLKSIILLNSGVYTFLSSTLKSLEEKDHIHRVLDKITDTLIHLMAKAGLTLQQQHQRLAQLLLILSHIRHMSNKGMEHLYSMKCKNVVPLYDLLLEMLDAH

[6] = test system: subintestinal vein vessels (SIVs) of Tg(fli1:EGFP) zebrafish embryos; assay: Blood vessel formation (SIV diameter/morphology) in Tg(fli1:EGFP) zebrafish embryos; assay type: in vivo; settings: for angiogenic effect in SIVs, comparison with classical SERMs: raloxifene 10 µM, tamoxifen 3 µM, 17-βEstradiol 10 µM, calycosin 100 µM
Protocol: Zebrafish embryos were generated by natural pair-wise mating (3–12 months old) and were raised at 28.5°C in embyro water. Healthy, hatched zebrafish were picked out at 3 dpf and distributed into a 12-well microplate with 10 to 15 fish in each well. […] Embryos receiving DMSO (0.1%) served as vehicle controls and were equivalent to no treatment. Each experiment was repeated at least three times, with 30 embryos per group. VTKI was dissolved in DMSO as stock. Zebrafish embryos, Tg(fli-1:EGFP) and Tg(fli-1:nEGFP), were treated with inhibitor dissolved in embryo water from 3 dpf at the concentration indicated, controlled by DMSO treated embryos. Embryos were maintained using standard methods.
(§2) At 96 hpf, zebrafish were removed from microplates and observed for viability and gross morphological changes under a fluorescence microscope (Olympus IX81 Motorized Inverted Microscope, Japan) equipped with a digital camera (DP controller, Soft Imaging System, Olympus). Images were analyzed with Axiovision 4.2 and Adobe Photoshop 7.0.
Three random points in SIVs of Tg(fli1:EGFP) zebrafish embryos were chosen for vessel diameter measurement using AxiovisionLE 4.1. Numbers of endothelial cells in SIVs of Tg(fli1:nEGFP) zebrafish embryos were assessed by direct counting of the total number of green light points. Each green light point represents one endothelial cell (GFP+).

ERα [7] = molecular target: T3, ERα; assay: GeneBLAzer β-lactamase reporter-gene assay, antagonist activity against E2, ERα-UAS-bla GripTite cells; settings: in presence of EC80 of 17-β-estradiol
ERβ [8] = molecular target: T2, ERβ; assay: biochemical
Protocol: as §1
Target sequence in this assay (Q92731 whole entry): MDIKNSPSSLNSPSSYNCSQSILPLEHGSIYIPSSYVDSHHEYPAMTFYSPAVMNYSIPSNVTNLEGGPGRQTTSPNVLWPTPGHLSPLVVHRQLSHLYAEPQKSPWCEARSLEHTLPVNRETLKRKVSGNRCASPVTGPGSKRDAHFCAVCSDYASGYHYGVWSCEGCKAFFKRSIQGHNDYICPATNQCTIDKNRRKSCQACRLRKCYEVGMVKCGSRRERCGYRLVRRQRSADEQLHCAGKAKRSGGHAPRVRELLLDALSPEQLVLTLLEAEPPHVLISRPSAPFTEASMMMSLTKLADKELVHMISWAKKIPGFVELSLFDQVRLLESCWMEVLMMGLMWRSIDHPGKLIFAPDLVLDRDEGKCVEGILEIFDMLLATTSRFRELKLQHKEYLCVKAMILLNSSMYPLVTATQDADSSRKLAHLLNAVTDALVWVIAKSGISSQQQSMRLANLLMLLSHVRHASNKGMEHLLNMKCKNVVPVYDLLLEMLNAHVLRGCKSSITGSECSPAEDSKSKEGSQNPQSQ

[9] = test system: endothelial cells in SIVs of Tg(fli1:nEGFP) zebrafish embryos; assay: Endothelial cell number in SIVs of Tg(fli1:nEGFP) zebrafish embryos; assay type: in vivo; settings: calycosin 10, 30, 100 µM, 72 hpf for 24 h; SIV region
Protocol: Zebrafish embryos were generated by natural pair-wise mating (3–12 months old) and were raised at 28.5°C in embyro water. Healthy, hatched zebrafish were picked out at 3 dpf and distributed into a 12-well microplate with 10 to 15 fish in each well. Different concentrations (10, 30, 100 µM) of calycosin, raloxifene or tamoxifen solutions were then added to wells and incubated at 28°C for 24 h. Embryos receiving DMSO (0.1%) served as vehicle controls and were equivalent to no treatment. Each experiment was repeated at least three times, with 30 embryos per group. VTKI was dissolved in DMSO as stock. Zebrafish embryos, Tg(fli-1:EGFP) and Tg(fli-1:nEGFP), were treated with inhibitor dissolved in embryo water from 3 dpf at the concentration indicated, controlled by DMSO treated embryos. […]
as §2
Three random points in SIVs of Tg(fli1:EGFP) zebrafish embryos were chosen for vessel diameter measurement using AxiovisionLE 4.1. Numbers of endothelial cells in SIVs of Tg(fli1:nEGFP) zebrafish embryos were assessed by direct counting of the total number of green light points. […]

zebrafish embryos = assay: Toxicity (highest non-toxic dose) in zebrafish embryos; assay type: in vivo; settings: 72 hpf for 24 h
Protocol: Zebrafish embryos were generated by natural pair-wise mating (3–12 months old) and were raised at 28.5°C in embyro water. Healthy, hatched zebrafish were picked out at 3 dpf and distributed into a 12-well microplate with 10 to 15 fish in each well. Different concentrations (10, 30, 100 µM) of calycosin, raloxifene or tamoxifen solutions were then added to wells and incubated at 28°C for 24 h. Embryos receiving DMSO (0.1%) served as vehicle controls and were equivalent to no treatment. Each experiment was repeated at least three times, with 30 embryos per group. VTKI was dissolved in DMSO as stock. Zebrafish embryos, Tg(fli-1:EGFP) and Tg(fli-1:nEGFP), were treated with inhibitor dissolved in embryo water from 3 dpf at the concentration indicated, controlled by DMSO treated embryos. Embryos were maintained using standard methods.
as §2

COc1ccc(-c2coc3cc(O)ccc3c2=O)cc1O [calycosin]
IC50 value relative to that of E2 (higher) (ERα [1]; binding to ERα and ERβ): approximately 10^4 fold | pIC50 (ERα [1]; displacement of Fluormone ES2, 2 h room temperature): 4.24 | promotion of HUVEC proliferation (HUVEC; calycosin 100 µM, Fig. 9A experiment): 67% | time at which phosphorylation of ERK1/2 reached a plateau (ERK1/2; calycosin 100 µM): 30 to 60 min | phosphorylation of ERK1/2, concentration dependence (ERK1/2; calycosin 10, 30, 100 µM for 30 min, maximum at 100 µM): enhanced in a dose-dependent manner | maximum agonistic activity at ERβ (ERβ [2]): 8.6% | VEGFA mRNA expression level compared to the control ([3]; embryos at 72 hpf, increase trend): 1.2 fold | Flk1A mRNA expression increase ([3]; P<0.001): 0.8 fold | Flk1B mRNA expression increase ([3]; P<0.001): 0.9 fold | VEGFR1 mRNA expression increase ([3]; P<0.001): 1.1 fold | reduction in IC50 value at ERβ compared with ERα (ERβ [4]): 2 fold | increase in maximal inhibition at ERβ compared with ERα (ERβ [4]; antagonist activity assay): 2 fold | maximum inhibition against E2 at ERβ (ERβ [4]; in presence of EC80 of 17-β-estradiol): 82% | pEC50 (ERα [5]): 5.61 | increase in maximal activation at ERα compared with ERβ (ERα [5]; agonist activity assay): 2 fold | reduction in EC50 value at ERα compared with ERβ (ERα selectivity) (ERα [5]; agonist activity assay): 2 fold | maximum agonistic activity at ERα (ERα [5]; percentage of maximum activation induced by 17-β-estradiol (10 µM)): 14.6% | diameter of SIVs ([6]; calycosin 10, 30, 100 µM, 72 hpf to 96 hpf, vs 0.1% DMSO control, P<0.05 and P<0.001): increased in a dose-dependent manner | angiogenic effect in SIVs, comparison with classical SERMs ([6]; 72 hpf for 24 h): significant angiogenic effect | maximum inhibition against E2 at ERα (ERα [7]): 46% | pIC50 (ERβ [8]): 4.49 | increase in endothelial cells population compared with the control [9]: approximately 1.5 times

O=C(Nc1ccc(Cl)cc1)c1ccccc1NCc1ccncc1 [VRI]
effect on calycosin-induced angiogenesis (SIV diameter and endothelial cell number) ([6]; VRI 100 ng/ml with calycosin 100 µM, 72 hpf for 24 h): sufficient to reverse the calycosin-induced angiogenic effects to control levels | effect on angiogenesis in zebrafish embryonic development, inhibitor alone, low concentration ([6]; VRI 100 ng/ml, 72 hpf for 24 h): no effect | effect on angiogenesis in zebrafish embryonic development, inhibitor alone, high concentration ([6]; VRI 1 µg/ml, 72 hpf for 24 h): caused significant (P<0.001) defects in angiogenesis

O=C(c1ccc(OCCN2CCCCC2)cc1)c1c(-c2ccc(O)cc2)sc2cc(O)ccc12 [raloxifene]
highest non-toxic dose in zebrafish embryos (zebrafish embryos): 10 µM | angiogenic effect in SIVs, comparison with classical SERMs ([6]; 72 hpf for 24 h): no obvious changes

CC/C(=C(\c1ccccc1)c1ccc(OCCN(C)C)cc1)c1ccccc1 [tamoxifen]
highest non-toxic dose in zebrafish embryos (zebrafish embryos): 3 µM | angiogenic effect in SIVs, comparison with classical SERMs ([6]; 72 hpf for 24 h): no obvious changes

C[C@]12CC[C@@H]3c4ccc(O)cc4C[C@@H](CCCCCCCCC[S+]([O-])CCCC(F)(F)C(F)(F)F)[C@H]3[C@@H]1CC[C@@H]2O (stereo partly drawn) [ICI182, 780, reference compound]
reduction of calycosin-induced HUVEC proliferation (HUVEC; pre-treatment with ER inhibitor 30 µM before calycosin 100 µM): 40% | effect on calycosin-induced phosphorylation of ERK1/2 (ERK1/2; ICI182, 780 30 µM, calycosin 100 µM): suppressed phosphorylation of ERK1/2 to control levels

C[C@]12CC[C@@H]3c4ccc(O)cc4CC[C@H]3[C@@H]1CC[C@@H]2O [E2, 17-β-estradiol]
highest non-toxic dose in zebrafish embryos (zebrafish embryos): 10 µM | angiogenic effect in SIVs, comparison with classical SERMs ([6]; 72 hpf for 24 h): no obvious changes
